In test [1] the test system is dissociated hippocampal and/or cortical neurons. Kind of test: Neuronal survival assay in vitro (5-day exposure). Type of test: cell-based, rat. How it is done: (§1) The neuroprotective and neurotropic actions of the herein defined peptides were determined by their effects upon fetal rodent neuronal cultures. […] The dissociated cells were be plated at low density (50,000 cells/35-mm dish) upon confluent layers of astrocytes. The astrocyte feeder layers were prepared from the hippocampi and/or cortices of 2-day-old rat pups. Following treatment with 0,125% trypsin for 15 min, the tissue was triturated and plated at 2.5×10^5 cells into 35-mm tissue culture dishes coated with Vintrogen (Collagen, Palo Alto) and poly-L-lysine (M1 30-70K 10^-5 M borate, pH 8.4, Sigma). The resulting feeder layers were grown in Eagle's minimal essential medium (MEM, formula 82-0234, Gibco) with 10% fetal bovine serum until confluent (12-14 days); feeder layers prepared in this way were devoid of neurons and consisted predominantly of flat cells that were stained by antibodies to glia fibrillary acidic protein. When hippocampal and/or cortical neurons were added to the confluent feeder cultures, the medium was changed to 94% MEM, 5% horse serum (Gibco) and an added nutrient supplement containing insulin, transferrin, putrescine, selenium, corticosterone, progesterone and triiodothyronine. The resulting mixed neuron/glia cultures are treated one day after plating with 5'-fluoro-2'-deoxyuridine (15 μg/ml plus uridine, 35Mg/ml) to suppress the overgrowth of background cells. The neuronal cultures were allowed to grow for one week prior to the beginning of the experimental period and the medium was changed prior to adding peptides or controls.
The test period of exposure to peptides was five days long, a period in which cell survivability can be accurately quantitated. […] Neurons were counted in 100 fields at predetermined stage coordinates. Cultures were coded and counted in a blinded fashion without knowledge of sample treatment. The total area counted was 50 mm^2. […] The maximum effect was detected at 0.1 nM, with approximately a 25% increase in cell survival compared to vehicle (Control) treated cultures.

The test system of test [2] is hippocampal neuronal cells. Kind of test: Twenty one day survival of hippocampal neuronal cell cultures. Type of test: cell-based, rat. The settings on record: 0.1 nM. Here is the method:
as §1, with “The resulting mixed neuron/glia cultures are treated one day after plating with 5'-fluoro-2'-deoxyuridine (15 μg/ml plus uridine, 35Mg/ml) to suppress the overgrowth of background cells. The neuronal cultures were allowed to grow for one week prior to the beginning of the experimental period and the medium was changed prior to adding peptides or controls.” left out

Consider `C[C@@H](N)C(=O)N[C@@H](CO)C(=O)N[C@H](C(=O)N[C@H](C(=O)N[C@H](C(=O)N[C@@H](CC(N)=O)C(=O)N[C@@H](Cc1ccc(O)cc1)C(=O)N[C@H](C(N)=O)[C@@H](C)O)[C@@H](C)O)[C@@H](C)O)[C@@H](C)O` [DAPTA], for which the “effect on neuronal survival (neuronal cell count as percentage of Control)” value in test [1] (7-day-old neuronal cultures, five days exposure, vs vehicle control, FIG. 1) was “caused an increase in neuronal survival”. In test [1] (at 0.1 nM (maximum effect), five days), the “increase in cell survival compared to vehicle (Control) treated cultures” value was ~25%. Moreover, the “concentration of maximum effect on neuronal survival” value in test [1] (five days exposure, FIG. 1) amounted to 0.1 nM. Further, in test [2] (after twenty one days, FIG. 2), the “increase in cell survival compared to vehicle treated cultures” value was found to be 4 fold. For the same compound, the “cell survival rate over the test period” value in test [2] (at all times during the twenty one day test period, vs vehicle) is listed as “enhanced”.

These data come from patent publication US5534495A, “Treatment of non-HIV neuropathic pain syndromes” (Advanced Peptides and Biotechnology Sciences, priority 1995, dated 1996).
